The text below walks through data of patent US9796742B2, “Kinase inhibitors” (Respivert Limited, priority 2012, dated 2017).

One assay has as its target Syk (Homo sapiens (Human), UniProt P43405). Description: Syk enzyme inhibition (FRET, Z-LYTE). It counts as biochemical. Here is the method: (§1) The enzyme inhibitory activities of compounds disclosed herein are determined by FRET using synthetic peptides labelled with both donor and acceptor fluorophores (Z-LYTE, Invitrogen Ltd., Paisley, UK).
(§2) The inhibitory activities of compounds of the invention against c-Src and Syk enzymes (Invitrogen), are evaluated in a similar fashion to that described hereinabove. The relevant enzyme (3000 ng/mL or 2000 ng/mL respectively, 2.5 μL) is incubated with the test compound (either 4 μg/mL, 0.4 μg/mL, 0.04 μg/mL, or 0.004 μg/mL, 2.5 μL each) for 2 hr at RT. The FRET peptides (8 μM. 2.5 μL), and appropriate ATP solutions (2.5 μL, 800 μM for c-Src, and 60 μM ATP for Syk) are then added to the enzymes/compound mixtures and incubated for 1 hr. Development reagent (protease, 5 μL) is added for 1 hr prior to detection in a fluorescence microplate reader (Varioskan® Flash, ThermoFisher Scientific).
(§3) In all cases, the site-specific protease cleaves non-phosphorylated peptide only and eliminates the FRET signal. Phosphorylation levels of each reaction are calculated using the ratio of coumarin emission (donor) over fluorescein emission (acceptor), for which high ratios indicate high phosphorylation and low ratios indicate low phosphorylation levels. The percentage inhibition of each reaction is calculated relative to non-inhibited control and the 50% inhibitory concentration (IC50 value) is then calculated from the concentration-response curve.

A further assay deals with d-U937 cells. Description: LPS-induced TNFα/IL-8 release in d-U937 cells. It counts as cell-based. The note with it: Homo sapiens, dU937, LPS-stimulated d-U937 cells. Here is the method:
U937 cells, a human monocytic cell line, are differentiated to macrophage-type cells by incubation with phorbol myristate acetate (PMA; 100 ng/mL) for 48 to 72 hr. Cells are pre-incubated with final concentrations of test compound for 2 hr and are then stimulated with 0.1 μg/mL of LPS (from E. Coli: O111:B4, Sigma) for 4 hr. The supernatant is collected for determination of TNFα and IL-8 concentrations by sandwich ELISA (Duo-set, R&D systems). The inhibition of TNFα production is calculated as a percentage of that achieved by 10 μg/mL of BIRB796 at each concentration of test compound by comparison against vehicle control. The relative 50% effective concentration (REC50) is determined from the resultant concentration-response curve. The inhibition of IL-8 production is calculated at each concentration of test compound by comparison with vehicle control. The 50% inhibitory concentration (IC50) is determined from the resultant concentration-response curve.

Another assay concerns the target GSK3α (Homo sapiens (Human), UniProt P49840). Description: GSK 3α enzyme inhibition (FRET, Z-LYTE; Method 2). Type of assay: biochemical. The procedure, abridged:
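GSK3-α protein preincubated with compound for 105 min, then Z-LYTE FRET peptide and ATP added for 1 h before protease development for 1 h. Phosphorylation taken from coumarin/fluorescein emission ratio; percent inhibition against uninhibited control and IC50 calculated from concentration-response curves.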

Assay [1] relates to PBMCs. Nature of the assay: LPS-induced TNFα/IL-8 release in PBMC cells. As to conditions: Homo sapiens, LPS-stimulated PBMCs. Type of assay: cell-based. The procedure, abridged:
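Human PBMCs from healthy donors, isolated by density gradient, were pretreated with compound for 2 h and then stimulated with 1 ng/mL LPS (E. coli 0111:B4) for 24 h at 37° C, 5% CO2. Supernatant IL-8 and TNFα were measured by sandwich ELISA, and IC50 was taken from the dose-response curve.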

A further assay addresses p38 MAPKα (Homo sapiens (Human), UniProt Q16539). Description: p38 MAPKα enzyme inhibition (FRET, Z-LYTE; Method 2). Type of assay: biochemical. Here is the method:
as §1
The inhibitory activities of test compounds against the p38 MAPKα isoform (MAPK14: Invitrogen), are evaluated indirectly by determining the level of activation/phosphorylation of the down-stream molecule, MAPKAP-K2. The p38 MAPKα protein (80 ng/mL, 2.5 μL) is mixed with the test compound (2.5 μL of either 4 μg/mL, 0.4 μg/mL, 0.04 μg/mL or 0.004 μg/mL) for 2 hr at RT. […] The mixture is incubated for 1 hr at RT. Development reagent (protease, 5 μL) is added for 1 hr prior to detection in a fluorescence microplate reader (Varioskan® Flash, ThermoFisher Scientific).
Method 2 This method follows the same steps as Method 1 above, but utilises a higher concentration of the p38 MAPKα protein (2.5 μL of 200 ng/mL protein instead of 2.5 μL of 80 ng/mL protein) for mixing with the test compound.
as §3

A further assay addresses c-Src (Homo sapiens (Human), UniProt P12931). Nature of the assay: c-Src enzyme inhibition (FRET, Z-LYTE). It counts as biochemical. Here is the method: as §1, §2, §3
The test system of assay [2] is PBMCs. Nature of the assay: IL-2 and IFN gamma release in CD3/CD28 stimulated PBMC cells. It counts as cell-based. As to conditions: Homo sapiens. Here is the method:
PBMCs from healthy subjects are separated from whole blood using a density gradient (Lymphoprep, Axis-Shield Healthcare). Cells are added to a 96 well plate pre-coated with a mixture of CD3/[…] monoclonal antibodies (0.3 μg/mL eBioscience and 3 μg/mL BD Pharmingen respectively). Compound at the desired concentration is then added to the wells and the plate left for 3 days under normal tissue culture conditions. Supernatants are harvested and IL-2 and IFN gamma release determined by Sandwich ELISA (Duo-set, R&D System). The IC50 is determined from the dose response curve.

The next assay deals with HT29 cells. Nature of the assay: IL-1β-induced IL-8 release in HT29 cells. As to conditions: Homo sapiens, HT-29, IL-1β-stimulated HT29 cells, read-out: IC50 Values for Inhibition of Cytokine Release, HT29 cells IL-8. Type of assay: cell-based. Here is the method: HT29 cells, a human colon adenocarcinorna cell line, are plated in a 96 well plate (24 hrs) and pre-treated with compounds at the desired concentration for 2 hours before addition of 5 ng/mL of IL-1β (Abcam) for 24 hours. Supernatants are harvested for IL-8 quantification by Sandwich ELISA (Duo-set, R&D System). The IC50 is determined from the dose response curve.

Setting [3] is: IL-8, read-out: IC50 Values for Inhibition of Cytokine Release, dU937 cells IL-8.
[4] abbreviates: TNFα (REC50 relative to BIRB796 per method), read-out: IC50 Values for Inhibition of Cytokine Release, dU937 cells TNFα.
Setting [5] is: IL-8, read-out: IC50 Values for Inhibition of Cytokine Release, PBMCs IL-8.
[6] abbreviates: TNFα, read-out: IC50 Values for Inhibition of Cytokine Release, PBMCs TNFα.
The mark [7] stands for this setting: IL-2, read-out: IC50 Values for Inhibition of Cytokine Release, PBMCs IL-2.

Molecules are shown by their SMILES. Read-outs that look alike come from different tables or passages of the source.

Sequence of GSK3α (P49840 whole entry): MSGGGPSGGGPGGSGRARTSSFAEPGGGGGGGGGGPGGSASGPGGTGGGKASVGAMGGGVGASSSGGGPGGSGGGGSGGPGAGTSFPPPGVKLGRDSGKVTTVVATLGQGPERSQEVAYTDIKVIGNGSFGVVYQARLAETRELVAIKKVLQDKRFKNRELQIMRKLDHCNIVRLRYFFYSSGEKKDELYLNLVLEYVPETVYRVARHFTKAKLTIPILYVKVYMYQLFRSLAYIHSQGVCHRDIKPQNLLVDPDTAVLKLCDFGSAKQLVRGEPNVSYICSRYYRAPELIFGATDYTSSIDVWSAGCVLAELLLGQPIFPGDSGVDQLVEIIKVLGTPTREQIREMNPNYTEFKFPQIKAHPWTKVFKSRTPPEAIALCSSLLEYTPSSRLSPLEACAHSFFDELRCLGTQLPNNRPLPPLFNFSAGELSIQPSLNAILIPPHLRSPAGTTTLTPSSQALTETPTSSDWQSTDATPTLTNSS
Sequence of p38 MAPKα (Q16539 whole entry): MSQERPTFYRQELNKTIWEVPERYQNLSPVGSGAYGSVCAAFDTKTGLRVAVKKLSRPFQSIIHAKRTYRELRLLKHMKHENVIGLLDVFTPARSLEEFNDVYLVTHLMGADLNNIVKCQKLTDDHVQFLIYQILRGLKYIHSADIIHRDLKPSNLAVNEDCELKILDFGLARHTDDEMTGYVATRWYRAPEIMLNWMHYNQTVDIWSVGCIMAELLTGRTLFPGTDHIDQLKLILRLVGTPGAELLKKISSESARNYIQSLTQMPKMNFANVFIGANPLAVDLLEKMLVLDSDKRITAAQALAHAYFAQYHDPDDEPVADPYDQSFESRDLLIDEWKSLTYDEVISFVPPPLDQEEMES
Sequence of c-Src (P12931 whole entry, looked up): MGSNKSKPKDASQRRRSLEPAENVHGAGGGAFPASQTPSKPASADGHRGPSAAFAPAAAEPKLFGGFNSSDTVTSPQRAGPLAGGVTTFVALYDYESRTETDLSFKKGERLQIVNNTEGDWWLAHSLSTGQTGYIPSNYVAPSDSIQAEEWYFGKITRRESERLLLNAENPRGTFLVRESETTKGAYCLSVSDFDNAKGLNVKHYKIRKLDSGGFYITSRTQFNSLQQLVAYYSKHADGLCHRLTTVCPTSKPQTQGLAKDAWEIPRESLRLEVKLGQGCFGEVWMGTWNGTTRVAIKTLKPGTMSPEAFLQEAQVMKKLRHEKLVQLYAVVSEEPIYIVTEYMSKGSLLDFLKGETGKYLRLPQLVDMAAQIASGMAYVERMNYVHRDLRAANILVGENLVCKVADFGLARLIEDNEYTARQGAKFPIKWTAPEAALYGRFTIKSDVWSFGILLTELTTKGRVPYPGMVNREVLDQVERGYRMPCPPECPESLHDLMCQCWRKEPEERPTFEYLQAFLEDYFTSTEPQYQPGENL

For `CC(C)(C)c1cc(NC(=O)Nc2ccc(Oc3ccnc(Nc4ccccc4)n3)c3ccccc23)n(-c2ccc(P(C)(C)=O)cc2)n1` [Example 1, 1-(3-(tert-Butyl)-1-(4-(dimethylphosphoryl)phenyl)-1H-pyrazol-5-yl)-3-(4-((2-(phenylamino)pyrimidin-4-yl)oxy)naphthalen-1-yl)urea], the IC50 against Syk was determined as 0.034 µM; in the assay on d-U937 cells (setting [3]) it was 0.0049 µM; in the assay on d-U937 cells (setting [4]), 0.002 µM; against GSK3α it was 1.28 µM; in the assay with PBMCs [1] (setting [5]) it was 0.0069 µM; in the assay with PBMCs [1] (setting [6]) it was 0.0013 µM. Moreover, the values for the IC50 at p38 MAPKα and against c-Src were 0.008 µM and 0.015 µM, respectively.

As for `CC(C)(C)c1cc(NC(=O)Nc2ccc(Oc3ccnc(Nc4ccccc4)n3)c3ccccc23)n(-c2cccc(P(C)(C)=O)c2)n1` [Example 2, 1-(3-(tert-Butyl)-1-(3-(dimethylphosphoryl)phenyl)-1H-pyrazol-5-yl)-3-(4-((2-(phenylamino)pyrimidin-4-yl)oxy)naphthalen-1-yl)urea], the IC50 came to 0.0094 µM in the assay on d-U937 cells (setting [3]), 0.0036 µM in the assay on d-U937 cells (setting [4]), 0.647 µM on GSK3α and 0.0043 µM with PBMCs [1] (setting [6]).

Consider `COCC(=O)Nc1cc(Oc2ccc(NC(=O)Nc3cc(C(C)(C)C)nn3-c3ccc(P(C)(C)=O)cc3)c3ccccc23)ccn1` [Example 3, N-(4-((4-(3-(3-(tert-Butyl)-1-(4-(dimethylphosphoryl)phenyl)-1H-pyrazol-5-yl)ureido)-naphthalen-1-yl)oxy)pyridin-2-yl)-2-methoxyacetamide], for which the IC50 was determined as 0.0086 µM in the assay with d-U937 cells (setting [3]), 0.0036 µM with d-U937 cells (setting [4]), 0.016 µM at GSK3α and 0.0025 µM with PBMCs [1] (setting [6]).

Regarding `CC(C)c1cc(NC(=O)Nc2ccc(Oc3ccnc(Nc4ccccc4)n3)c3ccccc23)n(-c2ccc(P(C)(C)=O)cc2)n1` [Example 4, 1-(1-(4-(Dimethylphosphoryl)phenyl)-3-isopropyl-1H-pyrazol-5-yl)-3-(4-((2-(phenylamino)-pyrimidin-4-yl)oxy)naphthalen-1-yl)urea], the IC50 was 0.0192 µM with d-U937 cells (setting [4]); 0.22 µM on GSK3α; 0.0589 µM in the assay with PBMCs [1] (setting [5]); 0.0208 µM with PBMCs [1] (setting [6]); 0.012 µM against c-Src.

For `CC(C)(C)c1cc(NC(=O)Nc2ccc(Oc3ccnc(Nc4ccccc4)c3)c3ccccc23)n(-c2cccc(CP(C)(C)=O)c2)n1` [Example 41, 1-(3-(tert-Butyl)-1-(3-((dimethylphosphoryl)methyl)phenyl)-1H-pyrazol-5-yl)-3-(4-((2-(phenylamino)pyridin-4-yl)oxy)naphthalen-1-yl)urea], the half-inhibitory concentration (IC50) at Syk amounted to 0.096 µM; in the assay on PBMCs [2] (setting [7]), 0.0564 µM; at GSK3α it was 4.3 µM; with PBMCs [1] (setting [5]), 0.0028 µM; in the assay on HT29 cells, 0.0047 µM; against p38 MAPKα it was 0.357 µM. At c-Src, this compound registered an IC50 of 0.056 µM.

On to `CC(C)c1cc(NC(=O)Nc2ccc(Oc3ccnc(Nc4ccccc4)c3)c3ccccc23)n(-c2cccc(CP(C)(C)=O)c2)n1` [Example 42, 1-(1-(3-((Dimethylphosphoryl)methyl)phenyl)-3-isopropyl-1H-pyrazol-5-yl)-3-(4-((2-(phenylamino)pyridin-4-yl)oxy)naphthalen-1-yl)urea], for which the half-maximal inhibitory concentration (IC50) worked out at 0.063 µM on Syk; 6.98 µM at GSK3α; 0.0055 µM in the assay with PBMCs [1] (setting [5]); 0.0056 µM with HT29 cells; 0.047 µM against c-Src.

Consider `CC(C)(C)c1cc(NC(=O)Nc2ccc(Oc3ccnc(Nc4ccccc4)c3)c3ccccc23)n(-c2cccc(CP3(=O)CCCC3)c2)n1` [Example 44, 1-(3-(tert-Butyl)-1-(3-((1-oxidophospholan-1-yl)methyl)phenyl)-1H-pyrazol-5-yl)-3-(4-((2-(phenylamino)pyridin-4-yl)oxy)naphthalen-1-yl)urea], for which the IC50 on GSK3α was found to be 8.04 µM; in the assay on PBMCs [1] (setting [5]) it was 0.004 µM; with HT29 cells, 0.0071 µM; against p38 MAPKα, 0.201 µM.

Regarding `CC(C)c1cc(NC(=O)Nc2ccc(Oc3ccnc(Nc4cc(OCCN5CCOCC5)cc(OC(F)(F)F)c4)n3)c3ccccc23)n(-c2cccc(CP(C)(C)=O)c2)n1` [Example 48, 1-(1-(3-((Dimethylphosphoryl)methyl)phenyl)-3-isopropyl-1H-pyrazol-5-yl)-3-(4-((2-((3-(2-morpholinoethoxy)-5-(trifluoromethoxy)phenyl)amino)pyrimidin-4-yl)oxy)naphthalen-1-yl)urea], the 50% inhibitory concentration (IC50) at Syk is 0.232 µM; with PBMCs [2] (setting [7]), 0.0534 µM; on GSK3α it was above 10 µM; in the assay on PBMCs [1] (setting [5]) it was 0.0015 µM; in the assay with HT29 cells, 0.0043 µM; against p38 MAPKα, 0.231 µM. 0.087 µM corresponded to half-maximal inhibition at c-Src (IC50).

For the compound `CC(C)c1cc(NC(=O)Nc2ccc(Oc3ccnc(Nc4cc(C#N)cc(OCCN5CCOCC5)c4)n3)c3ccccc23)n(-c2cccc(CP(C)(C)=O)c2)n1` [Example 57, 1-(4-((2-((3-cyano-5-(2-morpholinoethoxy)phenyl)amino)pyrimidin-4-yl)oxy)-naphthalen-1-yl)-3-(1-(3-((dimethylphosphoryl)methyl)phenyl)-3-isopropyl-1H-pyrazol-5-yl)urea], the half-maximal inhibitory concentration (IC50) against Syk turned out to be 0.007 µM; in the assay with PBMCs [2] (setting [7]), 0.0105 µM; at GSK3α it was 1.25 µM; in the assay with PBMCs [1] (setting [5]), 0.0027 µM; at p38 MAPKα, 0.021 µM; at c-Src it was 0.009 µM.

As to `CC(C)(C)c1cc(NC(=O)Nc2ccc(Oc3ccnc(Nc4cc(C(=O)NCCN5CCOCC5)cc(C(F)(F)F)c4)n3)c3ccccc23)n(-c2cccc(CP(C)(C)=O)c2)n1` [Example 58, 3-((4-((4-(3-(3-(tert-Butyl)-1-(3-((dimethylphosphoryl)methyl)phenyl)-1H-pyrazol-5-yl)-ureido)naphthalen-1-yl)oxy)pyrimidin-2-yl)amino)-N-(2-morpholinoethyl)-5-(trifluoromethyl)benzamide], the half-inhibitory concentration (IC50) on Syk was found to be 0.012 µM; in the assay on PBMCs [2] (IFNγ, read-out: IC50 Values for Inhibition of Cytokine Release, PBMCs IFNγ), 0.0048 µM; in the assay with PBMCs [2] (setting [7]), 0.0621 µM; against GSK3α, 0.689 µM; in the assay with PBMCs [1] (setting [5]) it was 0.0014 µM; at p38 MAPKα, 0.084 µM. At c-Src, this compound showed an IC50 of 0.007 µM.

A word on the IC50: it is the concentration at which inhibition is half-maximal.
